From US8026231B2, “Aminothiolester compounds, pharmaceutical and cosmetic compositions containing same and uses thereof” (CNRS, priority 2000, dated 2011)

What was measured:
[1] = tested on: DU145 cells; experiment: Growth of DU145 cells (protein and DNA assay, 72 h); format: cell-based, human
Method: (§1) The cells used correspond to two cell lines: metastatic cells of human prostate cancer (DU145) and murine lymphoid cells transfected with the human bcl2 gene (BAF3 bcl2).
The procedure used for the tests on DU145 is as follows: • 10^5 cells are incubated in the various wells of a microplate in 1 ml of culture medium.
(§2) The compounds are added 4 hours after placing the cells in the wells.
After 72 hours, the cells are removed at different times. The DU145 cells are washed twice with PBS and recovered directly with 0.1M sodium chloride.
(§3) The effect on the growth of the DU145 cells is measured by protein assay according to the Lowry method (Lowry, O. H., Rosenbrough, N. J., Farr, A. L. and Randall, J. Biol. Chem. 193, 265-275, (1951)) and DNA assay by the Hoechst method (West, D. C., Sattar, A. and Kumar, S., Anal. Biochem. 147, 289-295, (1985)).
(§4) The IC50 concentration is the concentration corresponding to a 50% inhibition of cell growth.

[2] = tested on: BAF3 bcl2 cells; experiment: Growth of BAF3 bcl2 cells (viable cell count, Trypan blue); format: cell-based, murine; conditions: 50% inhibition of cell growth
Method: as §1
The procedure used for the tests on BAF3 bcl2 cells is as follows: • 10^5 cells are incubated in the various wells of a microplate in 1 ml of culture medium. After incubation for 4 hours, the test compounds are added to the wells containing the BAF3 bcl2 cells.
For the BAF3 bcl2 cells, the growth is measured by counting the viable cells in the presence of 0.1% Trypan blue. The control consists of thioampal, disclosed in patent application WO 98/44919.
as §4

[3] = tested on: DU145 cells; experiment: Combination of Example 1 and Metmetlico on the growth of DU145 cells; format: cell-based, human
Method: The cells used correspond to metastatic cells of human prostate cancer DU145. 10^5 DU145 cells are incubated in the various wells of a microplate in 1 ml of culture medium. The test compounds are added 4 hours after placing the cells in the wells. After 72 hours, the cells are removed at different times. The cells are washed twice with PBS and recovered directly with 0.1M sodium chloride. The effect on the growth of DU145 cells is measured by protein assay according to the Lowry method (Lowry, O. H., Rosenbrough, […]. and Randall, J. Biol. Chem. 193, 265-275, (1951)) and DNA assay by the Hoechst method (West, […]. and Kumar, S., Anal. Biochem. 147, 289-295, (1985)). The test compounds are the compound of Example 1, metmetlico and a mixture thereof.

[4] = tested on: DU145 cells; experiment: Combination of two compounds of the invention on the growth of DU145 cells; format: cell-based, human; conditions: Homo sapiens, DU-145
Method: (§5) 10^5 normal human prostate cells or 10^5 cancerous human prostate cells (DU145) are incubated in various wells of a microplate in 1 ml of culture medium.
as §2
(§6) After 72 hours, the cells are removed at different times. The DU145 cells or the normal cells are washed twice with PBS and recovered directly with 0.1M sodium chloride.
as §3, with “DU145 cells or the normal” for “DU145”

[5] = tested on: normal human prostate cells; experiment: Combination of two compounds of the invention on normal human prostate cells; format: cell-based; conditions: Homo sapiens, Prostate cell
Method: as §5, §2, §6
as §3, with “DU145 cells or the normal” for “DU145”

[6] = tested on: R7 cells; experiment: Growth of R7 cells which overexpress the MDR gene; format: cell-based; conditions: increasing concentrations, 72 h, FIGS. 7 and 8
Method: (§7) 10^5 cells were incubated in the various wells of a microplate in 1 ml of culture medium. These are R7 cells, on the one hand, and K562 cells, on the other hand.
(§8) After incubating for 4 hours, the test compound (compound of Example 1 according to the invention, on the one hand, and daunorubicin, on the other hand) was added to the wells containing the cells.
(§9) After 72 hours, the cells were collected at different times.
(§10) The growth of the cells was measured by counting the viable cells in the presence of 0.1% Trypan blue.
(§11) FIGS. 7 and 8 respectively represent the percentage inhibition (I %) by daunorubicin and the compound of Example 1 on the growth of the R7 and K562 cells, obtained at increasing concentrations C. The results obtained with the K562 cells are symbolized by ♦ and those obtained with the R7 cells are symbolized by ▴.

[7] = tested on: K562 cells; experiment: Growth of K562 cells (control, no MDR overexpression); format: cell-based, human; conditions: increasing concentrations, 72 h, FIGS. 7 and 8
Method: as §7, §8, §9, §10, §11

[8] = Homo sapiens, DU-145, 50% inhibition of cell growth

`CSC(=O)C#CC(C)(C)N1CCCC1` [Example 4, S-methyl 4-methyl-4-pyrrodin-1-yl-2-pentynethioate] was tested, and the IC50 ([1]; 50% inhibition of cell growth) was 7.2 µM and the IC50 [2] was 2.7 µM.
For `CSCCC(=O)SCCC(CCCCC(=O)OCC[N+](C)(C)C)SC(=O)CCSC.[I-]` (stereo not drawn) [Metmetlico, 2′-(trimethylammonium)ethyl 6S,8S-bis(3-methyl-thiopropanoyl)octanoate iodide, reference compound], the “% Inhibition of growth of the DU145 cells” value ([3]; 25 μM) was 0% and the “% Inhibition of growth of the DU145 cells” value ([3]; 50 μM) was 0%.
Work on `CCCN(CCC)C(C)(C)C#CC(=O)SC` [Example 3, S-methyl 4-di-n-propylamino-4-methyl-2-pentynethioate] yielded an IC50 [1, 8] of 8 µM and an IC50 ([2]; Mus musculus) of 2.7 µM.
In the case of `CSC(=O)C#CC(C)(C)N1CCOCC1` [Example 5, S-methyl 4-methyl-4-morpholin-4-yl-2-pentynethioate], the inhibition at 1 µM ([4]; 1 μM) is reported as 14.3%, the inhibition at 2 µM ([4]; 2 μM) is reported as 25.2% and the IC50 [1, 8] is reported as 8.8 µM. It also gave an inhibition at 1 µM ([5]; 1 μM) of 0%, an inhibition at 2 µM ([5]; 2 μM) of 1.3% and an IC50 ([2]; Mus musculus) of 12 µM.
`COc1cccc2c1C(=O)c1c(O)c3c(c(O)c1C2=O)C[C@@](O)(C(C)=O)C[C@@H]3O[C@H]1C[C@H](N)[C@H](O)[C@H](C)O1` [daunorubicin, reference compound] was tested, and the “Inhibition of the growth of the R7 cells” value [6] was “no inhibitory effect on the growth of the R7 cells” and the “Inhibition of the growth of the K562 cells” value [7] was “inhibits the growth of the K562 cells”.
